Data reported in patent US20240043859A1, “HERBICIDE-RESISTANT PROTEIN, AND GENE AND USE THEREOF” (QINGDAO KINGAGROOT CHEMICAL COMPOUND CO., LTD., priority 2020, published 2024).
“Also recorded” adds a separate entry of the source.

Key:
AAD-12 = biological target: T1, AAD-12 (Delftia acidovorans, UniProt P83309); test: Degradation activities of AAD-12 on phenoxy acetic acid herbicides by spectrophotometry (A510); format: biochemical, Comamonas acidovorans; conditions: for A510 of reaction group, Reaction 1 / A510 of reaction group, Reaction 2 / A510 of reaction group, Reaction 3: AAD-12 enzyme with substrate, chromogenic detection at 510 nm; for Increased A510: reaction group versus blank group
T1 construct: made in house; host or cells: E. coli BL21(DE3)
T1 sequence (P83309 2-292, added parts left off): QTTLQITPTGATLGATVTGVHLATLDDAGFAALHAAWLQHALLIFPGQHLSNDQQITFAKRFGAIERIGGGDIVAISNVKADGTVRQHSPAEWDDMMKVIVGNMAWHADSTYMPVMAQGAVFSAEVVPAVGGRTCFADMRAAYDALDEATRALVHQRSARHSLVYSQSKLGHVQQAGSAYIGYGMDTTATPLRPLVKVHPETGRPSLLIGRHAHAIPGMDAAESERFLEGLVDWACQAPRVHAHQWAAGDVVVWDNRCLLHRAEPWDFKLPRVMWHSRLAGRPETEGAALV
Description: As reported in literature (Fukomori and Flausinger, Purification and characterization of 2,4-dichlorophenoxyacetate/alpha-ketoglutarate dioxygenase Journal of Biological Chemistry (1993) 268(32): 24311-24317), the constructed expression vector pET15b-AAD12 was transformed into E. coli BL21(DE3) and induced by IPTG for expression. After cells were collected and lysed, Ni-NTA column was used for purification and the purity of the protein was analyzed by SDS-PAGE.
Since phenolic products were produced by AAD-12-substrate catalytic reaction, 4-aminoantipyrine and potassium ferricyanide could be used to develop color with the products in an alkaline environment to generate red products with absorption at 510 nm, and the relevant parameters were directly read with a microplate reader.

Arabidopsis thaliana [1] = test: Herbicide resistance of transgenic Arabidopsis thaliana seedlings on plate medium (root growth); format: in vivo; conditions: plate medium: 2,4-D 0.3 μmol; 2,4-DB sodium 0.7 μmol; MCPA 0.1 μmol
Description: Expression in Arabidopsis thaliana was regulated by its AtUbi10 Arabidopsis thaliana ubiquitin promoter and the MAS (mannopine synthase) terminator. Hygromycin resistance gene (HygR=hpt) served as the selection marker.
Preparation of Agrobacterium infection solution: An activated Agrobacterium (GV3101) monoclone was picked and inoculated in 30 ml YEP liquid medium [yeast powder 10 g/L, tryptone 10 g/L, NaCl 5 g/L, 25 mg/L Rifampicin and 50 mg/L Kanamycin], shaking-cultured at 200 rmp/min, 28° C. overnight until the OD600 was about 1.0-1.5, then centrifuged at 6000 rmp/min for 10 min to collect the bacteria, and the supernatant was discarded. Arabidopsis thaliana infection solution (sucrose 50 g/L, Silwet L-77 300 μL/L, no need to adjust pH) was used to resuspend the cells to OD600=0.8 for later use.
Genetic transformation of Arabidopsis thaliana by flower dipping: Before transformation of Arabidopsis thaliana plants, attentions were paid to whether the plants were growing well, the inflorescences were abundant, and no stress response occurred. The first transformation was performed when plants were about 20 cm high. Plants could be properly watered if the soil was dry. The grown siliques were cut off with scissors the day before transformation. The inflorescences of the plants to be transformed were soaked in the above-mentioned Agrobacterium solution for 30 seconds to 1 minute, which was stirred gently during the period. And a layer of liquid film should appear on the infiltrated plant. The transformed plants were cultured in a dark environment for 24 hours, and then taken out and grown in a normal light environment. A second transformation could be performed in the same way a week later. […]

Arabidopsis thaliana [2] = test: Spray testing of T2 generation transgenic Arabidopsis thaliana; format: in vivo; conditions: 100 g/ha foliage spray, 10 days after spraying
Description: The T2 generation seedlings of four representative transformants, pQY2309, pQY2310, pQY2311 and pQY2313, were selected for further spray testing. Four lines were randomly selected from the T2 generation generated by transformation of each vector, and respectively foliage-sprayed with 2,4-D (100 g/ha), MCPA (100 g/ha) and 2,4-DB sodium (100 g/ha) when Arabidopsis thaliana seeds germinated, transplanted and the seedlings grew to 5-7 leaf. Non-transgenic wild-type Col-0 served as a negative control. The level of resistance was assessed 10 days after spraying.

SMILES	Degradation activity of expressed AAD-12 enzyme on the substrate (AAD-12)	A510 of reaction group, Reaction 1 (AAD-12)	A510 of reaction group, Reaction 2 (AAD-12)	A510 of reaction group, Reaction 3 (AAD-12)	Increased A510 (AAD-12)	Effect of the herbicide on seminal roots of wild-type Col-0 (Arabidopsis thaliana [1])	Effect of the herbicide spray on wild-type Col-0 (Arabidopsis thaliana [2])
CC(C)CCCCCOC(=O)COc1ccc(Cl)cc1Cl [2,4-D isooctyl ester]	degradation activities	0.1570	0.1578	0.1497	+0.019		
O=C([O-])CCCOc1ccc(Cl)cc1Cl.[Na+] [2,4-DB sodium, reference compound]						seminal roots are inhibited; also recorded: seminal roots are not able to grow	all or almost all non-transgenic wild-type Arabidopsis thaliana died; also recorded: severely injured
O=C(O)CCCOc1ccc(Cl)cc1Cl [2,4-DB, 4-(2,4-dichlorophenoxy)butanoic acid]	degradation activities	0.1373	0.1326	0.1345	+0.017		
Cc1cc(Cl)ccc1OCC(=O)O [MCPA, (4-chloro-2-methylphenoxy)acetic acid]	degradation activities	0.1998	0.2076		+0.035	seminal roots are inhibited; also recorded: seminal roots are not able to grow	all or almost all non-transgenic wild-type Arabidopsis thaliana died; also recorded: all die
